The source of these data is patent US20180318199A1, “Pharmaceutical Composition Having Anti-Aging Properties against High-Glucose” (TAIWAN LEADER BIOTECH CORP., priority 2017, published 2018).

Entries after “also recorded” stand apart in the source; their conditions may differ.

One assay concerns HNDFs. As to the kind of experiment: SA-β-gal senescence assay in HG-induced HNDFs. It counts as cell-based, human. The settings on record: 72 h. On the procedure: Next, the protective effects of antcins on HG-induced HNDF senescence are examined. In FIG. 2B, cells were incubated with ANA (10 μM), ANH (10 μM) and ANM (10 μM) in the presence of HG (30 mM) for 72 h. Cellular senescence is determined by SA-β-gal activity. […] After cells are co-incubated with HG and antcins (ANA, ANH and ANM) for 72 h, senescence is measured by SA-β-gal assay.
Therefore, in order to examine whether the ROS inhibitory effect may be extended to suppress HG-induced senescence, HG-induced senescenece eliminated by ANM is examined. In FIG. 4B, HNDFs are incubated with ANM (10 μM) or NAC (100 μM) in the presence or absence of HG (30 mM) for 72 h. Cellular senescence is determined by SA-β-gal assay. […] As is shown, cells are co-incubated with HG and ANM or NAC for 72 h.
Senescence-associated β-galactosidase (SA-β-gal) activity is determined in formaldehyde-fixed histochemical staining kit according to the manufacturer's instructions (Cell Signaling Technology, Danvers, Calif.). Briefly, cells are grown in 6-well plates at a density of 5×10^4 cells/well, and incubated with HG or test samples for 48 h (HUVECs) or 72 h (HNDFs). After incubation, cells are stained with SA-β-gal staining solution at pH 6.0 overnight and then the development of blue staining is observed and photographed under a bright-field microscope (Motic Electric Group, Xiamen, P.R. China).

The subject of the next assay is wild-type N2 C. elegans. Description: C. elegans oxidative stress-resistance assay (Juglone). The settings on record: pretreatment 10 μM, 3 days; 250 μM Juglone 2.5, 3.5 and 4.5 h. It counts as in vivo, Caenorhabditis elegans. On the procedure: Please refer to FIG. 8A˜FIG. 8C, which are views showing the life span of wild-type C. elegans extended by ANM from oxidative stress. As shown in the figures, to further confirm the anti-oxidative property of ANM in vivo, C. elegans model is subjected. Wild-type N2 worms are pretreated with ANM for 3 days followed by exposure to oxidative stress. In FIG. 8A, to determine oxidative stress resistance, age synchronized wild-type L1 larvae are pretreated with ANM (10 and 20 μM) or DMSO (0.01%) for 3 days. Oxidative stress is induced by incubation of pre-treated worms with 250 μM Juglone for 2.5, 3.5 and 4.5 h and then scored for viability. Results are expressed as mean±S.E.M of three independent experiments. Statistical significance is ser at *P<0.05 as compared to control vs. sample treatment.
Age synchronized L1 larvae are incubated with liquid S-basal medium containing E. coli OP50 at a density of 1×10^9 cells. MI and 10 and 20 μM ANM or 0.01% DMSO (vehicle control) for 3 days. Subsequently, adult worms are subjected to oxidative stress assay. To induce oxidative stress, worms are incubated with Juglone (5-hydroxyl-1,4-naphthoquinone; Sigma), an ROS-generating agent. ANM treated and control worms are transferred to S-basal medium containing 250 μM Juglone, and incubated from 2.5, 3.5 and 4.5 h. After treatment, viable worms are scored. […] The test is performed triplicate.

In assay [1] the test system is p16^INK4A, p21^CIP1 and SMP30. As to the kind of experiment: Western blot of senescence-associated marker proteins in HNDFs. The class given is cell-based, human. As for the experimental part: In addition, in FIG. 2C, HNDFs are incubated with ANA (10 μM), ANH (10 μM) and ANM (10 μM) in the presence of HG (30 mM) for 72 h. Senescence-associated marker proteins such as p16^INK4A, p21^CIP1 and SMP30 are determined by western blot analysis.
In order to assess the cellular and molecular basis of the ANM-mediated inhibition of senescence, the expression levels of senescence-associated marker proteins including, p16^INK4A and p21^CIP1 are examined. In FIG. 4D, to determine the effect of ANM on senescence-associated protein expression, HNDFs are incubated with ANM (10 μM) or NAC (100 μM) in the presence or absence of HG (30 mM) for 72 h. Immunoblotting analysis is used to determine the protein levels with corresponding specific antibodies.
Cells are lysed by either RIPA lysis buffer or nuclear and cytoplasmic extraction reagents (Thermo Fisher Scientific). Protein concentrations are determined by Bio-Rad protein assay reagent (Bio-Rad Laboratories, Hercules, Calif.). Equal amounts of protein samples (60 μg) are separated by 7-12% SDS-PAGE and the separated proteins are transferred onto polyvinylidene […] (PVDC) membrane overnight. The transferred protein membranes are blocked with 5% non-fat dried milk for 30 min, followed by incubation with specific primary antibodies overnight, and either horseradish peroxidase-conjugated goat anti-rabbit or anti-mouse antibodies for 2 h. The blots are detected using VL Chemi-Smart 3000 (Viogene Biotek, Sunnyvale, Calif.) with the enhanced chemiluminescence (ECL) western blotting reagent (Millipore, Billerica, Mass.).

`C=C(CCC(C)C1CCC2C3=C(C(=O)C(O)C21C)C1(C)CCC(O)C(C)C1CC3)C(C)C(=O)O` (stereo not shown) [ANM, antcin M]: in the assay on HNDFs (10 μM compound + HG 30 mM, HG alone 9.59-fold (FIG. 2B)), the SA-β-gal positive cells is on record as 1.51 fold. Further, in the assay with HNDFs (ANM 10 μM + HG), the “HG-induced senescence (SA-β-gal activity), control siRNA cells (SIRT-1 experiment)” value is reported as “significantly inhibits”; the “HG-induced senescence (SA-β-gal), control siRNA cells (Nrf2 experiment)” value is listed as “significantly inhibits”; the “HG-induced senescence (SA-β-gal), siNrf2-transfected cells” value is “significantly prevents”. Besides, the SA-β-gal positive cells with HNDFs (ANM 10 μM or NAC 100 μM + HG 30 mM, HG alone 5.72-fold (FIG. 4B)) came out at 1.89 fold. Besides, the “SA-β-gal activity, SIRT-1 siRNA transfected cells” value with HNDFs (ANM 10 μM or RES + HG) is on record as “remains partially elevated”. The “survival rate of worms exposed to Juglone-induced oxidative stress” value in the assay with wild-type N2 C. elegans is reported as “significantly increases”. Further, in assay [1] (10 μM + HG 30 mM, 72 h), the “SMP30 protein under HG (western blot)” value is given as “significantly upregulated”. In addition, the “HG-induced p16^INK4A and p21^CIP1 protein expression” value in assay [1] (10 μM + HG 30 mM, 72 h, western blot) is reported as “significantly downregulated; also recorded: significantly attenuates”. Moreover, the “basal level of p21^CIP1 expression” value in assay [1] (ANM alone, no HG) is “significantly reduces”.
